From patent publication US20250152553A1, “CARBAMOTHIOATE, AND CARBAMODITHIOATE DERIVATIVES OF MDMA, MDA OR ITS OPTICALLY ACTIVE (R)- OR (S)-MDMA AND MDA ISOMERS” (EmpathBio, Inc., priority 2023, published 2025)
≈ marks a conversion by molar mass, not a printed value.

Tests used:
[1] = Plasma stability in mouse plasma; type: in vitro ADME; conditions: for half-life at 1 μM: test concentration 1 μM
Solubility in FaSSIF = type: physicochemical; conditions: read-out: SOL (μM) FaSSIF
[2] = Chemical stability in PBS pH 6.5; type: physicochemical; conditions: for half-life: PBS pH 6.5; for Remaining Percentage (%) 0 min: PBS pH 6.5, 0 min; for Remaining Percentage (%) 30 min: PBS pH 6.5, 30 min; for Remaining Percentage (%) 60 min: PBS pH 6.5, 60 min; for Remaining Percentage (%) 120 min: PBS pH 6.5, 120 min; for Remaining Percentage (%) 240 min: PBS pH 6.5, 240 min

Row | SMILES | Remaining Percentages (%) 0 min ([1]; 1 μM) [%] | Remaining Percentages (%) 15 min ([1]; 1 μM) [%] | Remaining Percentages (%) 30 min ([1]; 1 μM) [%] | Remaining Percentages (%) 60 min ([1]; 1 μM) [%] | Remaining Percentages (%) 120 min ([1]; 1 μM) [%] | half-life at 1 μM [1] [h] | solubility (Solubility in FaSSIF) [µM] | half-life [2] [h] | Remaining Percentage (%) 0 min [2] [%] | Remaining Percentage (%) 30 min [2] [%] | Remaining Percentage (%) 60 min [2] [%] | Remaining Percentage (%) 120 min [2] [%] | Remaining Percentage (%) 240 min [2] [%] | Remaining Percentages (%) 0 min ([1]; 5 μM) [%] | Remaining Percentages (%) 30 min ([1]; 5 μM) [%] | Remaining Percentages (%) 120 min ([1]; 5 μM) [%] | half-life at 5 μM ([1]; test concentration 5 μM (control)) [h]
1 | CCSC(=S)N(C)C(C)Cc1ccc2c(c1)OCO2 (stereo not shown) [Prodrug 11, ethyl (1-(benzo[d][1,3]dioxol-5-yl)propan-2-yl)(methyl)carbamodithioate] | 100 | 97.92 | 101.25 | 94.58 | 94.17 | > 8.52 | 63.7 (≈ 19 µg/mL) | > 17.1 | 100.00 | 95.01 | 93.41 | 96.45 | 94.38 |  |  |  | 
2 | CCSC(=S)NC(C)Cc1ccc2c(c1)OCO2 (stereo not shown) [Prodrug 12, ethyl (1-(benzo[d][1,3]dioxol-5-yl)propan-2-yl)carbamodithioate] | 100 | 101.19 | 92.04 | 92.28 | 89.25 | > 8.52 | 252 (≈ 71.3 µg/mL) | > 17.1 | 100.00 | 102.94 | 99.30 | 104.13 | 100.98 |  |  |  | 
3 | O=C(O)Cc1ccccc1Nc1c(Cl)cccc1Cl [Diclofenac, reference compound] |  |  |  |  |  |  |  | 0.695 | 100.00 | 60.68 | 35.44 | 13.15 | 1.85 | 100 | 58.97 | 10.45 | 0.594
4 | CSC(=S)NC(C)Cc1ccc2c(c1)OCO2 (stereo not shown) [Prodrug 10, methyl (1-(benzo[d][1,3]dioxol-5-yl)propan-2-yl)carbamodithioate] | 100 | 100.89 | 98.00 | 100.22 | 89.09 | > 8.52 | 306 (≈ 82.5 µg/mL) | > 17.1 | 100.00 | 96.55 | 105.17 | 109.86 | 113.62 |  |  |  | 
5 | COC(=S)NC(C)Cc1ccc2c(c1)OCO2 (stereo not shown) [Prodrug 2, O-methyl (1-(benzo[d][1,3]dioxol-5-yl)propan-2-yl)carbamothioate] | 100 | 101.54 | 99.62 | 96.35 | 91.94 | > 8.52 | 279 (≈ 70.8 µg/mL) | > 17.1 | 100.00 | 105.00 | 100.45 | 102.27 | 105.00 |  |  |  | 
6 | CSC(=O)N(C)C(C)Cc1ccc2c(c1)OCO2 (stereo not shown) [Prodrug 5, S-methyl (1-(benzo[d][1,3]dioxol-5-yl)propan-2-yl)(methyl)carbamothioate] | 100 | 100.78 | 98.96 | 100.78 | 94.52 | > 8.52 | 308 (≈ 82.3 µg/mL) | > 17.1 | 100.00 | 91.67 | 104.03 | 96.42 | 91.92 |  |  |  | 
7 | CSC(=O)NC(C)Cc1ccc2c(c1)OCO2 (stereo not shown) [Prodrug 6, S-methyl (1-(benzo[d][1,3]dioxol-5-yl)propan-2-yl)carbamothioate] | 100 | 99.73 | 103.77 | 102.16 | 90.30 | > 8.52 | 293 (≈ 74.1 µg/mL) | > 17.1 | 100.00 | 93.08 | 91.55 | 88.38 | 88.38 |  |  |  | 
8 | CCSC(=O)N(C)C(C)Cc1ccc2c(c1)OCO2 (stereo not shown) [Prodrug 7, S-ethyl (1-(benzo[d][1,3]dioxol-5-yl)propan-2-yl)(methyl)carbamothioate] | 100 | 110.62 | 111.95 | 113.27 | 102.65 | > 8.52 | 291 (≈ 82 µg/mL) | > 17.1 | 100.00 | 99.17 | 97.73 | 95.86 | 103.73 |  |  |  | 
9 | CCOC(=S)N(C)C(C)Cc1ccc2c(c1)OCO2 (stereo not shown) [Prodrug 3, O-ethyl (1-(benzo[d][1,3]dioxol-5-yl)propan-2-yl)(methyl)carbamothioate] | 100 | 106.31 | 97.30 | 97.75 | 96.85 | > 8.52 | 131 (≈ 36.9 µg/mL) | > 17.1 | 100.00 | 100.73 | 95.33 | 99.99 | 91.16 |  |  |  | 
10 | CCSC(=O)NC(C)Cc1ccc2c(c1)OCO2 (stereo not shown) [Prodrug 8, S-ethyl (1-(benzo[d][1,3]dioxol-5-yl)propan-2-yl)carbamothioate] | 100 | 110.30 | 106.34 | 105.81 | 101.19 | > 8.52 | 288 (≈ 77.1 µg/mL) | > 17.1 | 100.00 | 113.02 | 100.82 | 102.82 | 114.28 |  |  |  | 
11 | COC(=S)N(C)C(C)Cc1ccc2c(c1)OCO2 (stereo not shown) [Prodrug 1, O-methyl (1-(benzo[d][1,3]dioxol-5-yl)propan-2-yl)(methyl)carbamothioate] | 100 | 108.17 | 96.20 | 103.37 | 100.00 | > 8.52 | 278 (≈ 74.4 µg/mL) | > 17.1 | 100.00 | 95.62 | 102.35 | 93.11 | 106.73 |  |  |  | 
12 | CSC(=S)N(C)C(C)Cc1ccc2c(c1)OCO2 (stereo not shown) [Prodrug 9, methyl (1-(benzo[d][1,3]dioxol-5-yl)propan-2-yl)(methyl)carbamodithioate] | 100 | 101.32 | 96.64 | 98.79 | 97.14 | > 8.52 | 30.4 (≈ 8.63 µg/mL) | > 17.1 | 100.00 | 97.22 | 96.84 | 107.55 | 89.55 |  |  |  | 
13 | CCOC(=S)NC(C)Cc1ccc2c(c1)OCO2 (stereo not shown) [Prodrug 4, O-ethyl (1-(benzo[d][1,3]dioxol-5-yl)propan-2-yl)carbamothioate] | 100 | 100.00 | 100.28 | 97.80 | 95.32 | > 8.52 | 60.3 (≈ 16.1 µg/mL) | > 17.1 | 100.00 | 103.44 | 100.85 | 94.76 | 94.28 |  |  |  | 
